Results from ChEMBL document CHEMBL1201862, “PubChem BioAssay data set” (2004).
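Following 48 hours of exposure in 96-well plates, responses at five concentrations were used to interpolate endpoints linearly. GI50 = concentration required for 50% inhibition of growth.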 Calls of active or inactive are those of the source. No stated cut-off is given here; in the data, active = GI50 up to about 1.1 µM and inactive = higher.

How the values were obtained:
Assay in all cases: DTP human tumour cell line panel, 48 h
[1] = test system: SK-MEL-5
[2] = test system: K562
[3] = test system: SR
[4] = test system: SK-OV-3
[5] = test system: SN12C
[6] = test system: A498
[7] = test system: SW-620
[8] = test system: HT-29
[9] = test system: MDA-MB-231
[10] = test system: SK-MEL-2
[11] = test system: IGROV-1
[12] = test system: CCRF-CEM
[13] = test system: HOP-62
[14] = test system: MDA-MB-435
[15] = test system: UACC-257
[16] = test system: ACHN
[17] = test system: Hs-578T
[18] = test system: NCI-H23
[19] = test system: HCT-15
[20] = test system: MOLT-4
[21] = test system: A549
[22] = test system: UO-31
[23] = test system: HOP-92
[24] = test system: TK-10
[25] = test system: KM12
[26] = test system: M14
[27] = test system: HL-60
[28] = test system: SNB-19
[29] = test system: OVCAR-5
[30] = test system: SF-268
[31] = test system: RXF 393
[32] = test system: BT-549
[33] = test system: MCF7
[34] = test system: Malme-3M
[35] = test system: DU-145
[36] = test system: COLO 205
[37] = test system: SK-MEL-28
[38] = test system: OVCAR-3
[39] = test system: 786-0
[40] = test system: PC-3
[41] = test system: NCI/ADR-RES
[42] = test system: HCC 2998
[43] = test system: UACC-62
[44] = test system: SNB-75
[45] = test system: SF-539
[46] = test system: U-251
[47] = test system: LOX IMVI
[48] = test system: HCT-116
[49] = test system: OVCAR-4
[50] = test system: T47D
[51] = test system: RPMI-8226
[52] = test system: NCI-H460
[53] = test system: NCI-H226
[54] = test system: CAKI-1
[55] = test system: EKVX
[56] = test system: OVCAR-8
[57] = test system: NCI-H522
[58] = test system: SF-295
[59] = test system: MDA-N

Which results are given for CCOC(=O)C(CC(C)C)NC(=O)CSc1nnc(COc2ccc(Cl)cc2)n1-c1ccccc1 (stereo unspecified)?
GI50 [1]: 17.1 µM (inactive); GI50 [2]: 19.3 µM (inactive); GI50 [3]: 2.3 µM (inactive); GI50 [4]: 27.2 µM (inactive); GI50 [5]: 15.6 µM (inactive); GI50 [6]: 12.7 µM (inactive); GI50 [7]: 20 µM (inactive); GI50 [8]: 18.5 µM (inactive); GI50 [9]: 16.9 µM (inactive); GI50 [10]: 16.3 µM (inactive); GI50 [11]: 15.4 µM (inactive); GI50 [12]: 5.08 µM (inactive); GI50 [13]: 19.4 µM (inactive); GI50 [14]: 16.9 µM (inactive); GI50 [15]: 11.2 µM (inactive); GI50 [16]: 13.3 µM (inactive); GI50 [17]: 22.3 µM (inactive); GI50 [18]: 16 µM (inactive); GI50 [19]: 18.5 µM; GI50 [20]: 4.51 µM (inactive); GI50 [21]: 21.2 µM (inactive); GI50 [22]: 1.86 µM (inactive); GI50 [23]: 18.6 µM (inactive); GI50 [24]: 17.9 µM (inactive); GI50 [25]: 18 µM (inactive); GI50 [26]: 18 µM (inactive); GI50 [27]: 21 µM (inactive); GI50 [28]: 17.3 µM (inactive); GI50 [29]: 19.9 µM (inactive); GI50 [30]: 18.2 µM (inactive); GI50 [31]: 16.6 µM (inactive); GI50 [32]: 17.7 µM (inactive); GI50 [33]: 18.5 µM (inactive); GI50 [34]: 19.3 µM (inactive); GI50 [35]: 17.1 µM (inactive); GI50 [36]: 18.2 µM (inactive); GI50 [37]: 16.7 µM (inactive); GI50 [38]: 10.5 µM (inactive); GI50 [39]: 15.3 µM (inactive); GI50 [40]: 17.1 µM (inactive); GI50 [41]: 20.5 µM (inactive); GI50 [42]: 10.4 µM (inactive); GI50 [43]: 16.4 µM (inactive); GI50 [44]: 16.5 µM (inactive); GI50 [45]: 21.8 µM (inactive); GI50 [46]: 19.3 µM (inactive); GI50 [47]: 14.9 µM (inactive); GI50 [48]: 14.8 µM (inactive); GI50 [49]: 16.2 µM (inactive); GI50 [50]: 14.4 µM (inactive); GI50 [51]: 16.4 µM (inactive); GI50 [52]: 14.9 µM (inactive); GI50 [53]: 22.4 µM (inactive)

Which results are given for O=C(NCC(=O)N1CCCC1C(=O)OC(=O)C1CCCN1C(=O)CNC(=O)OCc1ccccc1)OCc1ccccc1 (stereo unspecified)?
GI50 [1]: 26.5 µM (inactive); GI50 [2]: 31 µM (inactive); GI50 [3]: 44.5 µM (inactive); GI50 [54]: > 100 µM (inactive); GI50 [4]: > 100 µM (inactive); GI50 [5]: 31.8 µM (inactive); GI50 [55]: 42.8 µM (inactive); GI50 [6]: 73.1 µM (inactive); GI50 [7]: 76.9 µM (inactive); GI50 [8]: 24.1 µM (inactive); GI50 [9]: 21.1 µM (inactive); GI50 [10]: 20.4 µM (inactive); GI50 [11]: 33.8 µM (inactive); GI50 [12]: 35.9 µM (inactive); GI50 [13]: 26.2 µM (inactive); GI50 [14]: 22.5 µM (inactive); GI50 [15]: 16.7 µM (inactive); GI50 [16]: 36.2 µM (inactive); GI50 [17]: > 100 µM (inactive); GI50 [18]: 40.9 µM (inactive); GI50 [19]: 38.8 µM; GI50 [20]: 16.8 µM (inactive); GI50 [21]: 44.8 µM (inactive); GI50 [22]: 65.6 µM (inactive); GI50 [23]: 31 µM (inactive); GI50 [24]: 17.3 µM (inactive); GI50 [25]: 18.2 µM (inactive); GI50 [26]: 17.7 µM (inactive); GI50 [27]: 46.9 µM (inactive); GI50 [28]: 39.4 µM (inactive); GI50 [29]: 29.1 µM (inactive); GI50 [30]: 30.4 µM (inactive); GI50 [31]: 24 µM (inactive); GI50 [33]: 21.1 µM (inactive); GI50 [56]: 41.4 µM (inactive); GI50 [57]: 52.7 µM (inactive); GI50 [34]: 19.1 µM (inactive); GI50 [58]: 22.1 µM (inactive); GI50 [35]: 52 µM (inactive); GI50 [36]: 18.7 µM (inactive); GI50 [37]: 28.4 µM (inactive); GI50 [38]: 43.3 µM (inactive); GI50 [39]: 47.6 µM (inactive); GI50 [40]: 35.8 µM (inactive); GI50 [41]: > 100 µM (inactive); GI50 [59]: 25.3 µM (inactive); GI50 [42]: 32.7 µM (inactive); GI50 [43]: 14.7 µM (inactive); GI50 [44]: 14.9 µM (inactive); GI50 [45]: 24.5 µM (inactive); GI50 [46]: 41.8 µM (inactive); GI50 [47]: 17.7 µM (inactive); GI50 [48]: 32.9 µM (inactive); GI50 [49]: 40.6 µM (inactive); GI50 [50]: 44.9 µM (inactive); GI50 [51]: 21.7 µM (inactive); GI50 [52]: 33.1 µM (inactive); GI50 [53]: 26.1 µM (inactive)
